From patent US20140088124A1, “IMIDAZOLE DERIVATIVES” (priority 2011, published 2014)

Molecular target: T1, human DGAT1 (Homo sapiens, UniProt O75907)
T1 sequence (O75907 1-488): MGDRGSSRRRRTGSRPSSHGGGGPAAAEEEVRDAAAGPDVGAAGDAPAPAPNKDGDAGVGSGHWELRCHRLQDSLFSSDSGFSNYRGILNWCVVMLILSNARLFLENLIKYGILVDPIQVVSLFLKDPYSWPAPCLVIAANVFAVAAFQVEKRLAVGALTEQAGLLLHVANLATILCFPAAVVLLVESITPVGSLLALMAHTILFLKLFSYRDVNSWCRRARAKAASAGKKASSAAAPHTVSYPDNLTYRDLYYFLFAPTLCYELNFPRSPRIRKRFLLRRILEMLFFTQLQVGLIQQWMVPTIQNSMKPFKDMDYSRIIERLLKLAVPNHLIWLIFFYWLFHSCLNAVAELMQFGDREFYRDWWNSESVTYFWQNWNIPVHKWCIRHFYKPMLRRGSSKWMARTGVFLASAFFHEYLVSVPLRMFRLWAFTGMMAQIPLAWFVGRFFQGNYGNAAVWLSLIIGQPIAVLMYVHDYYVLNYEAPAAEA
Test: DGAT1 CPM Assay
Type: biochemical
Settings: human DGAT1, CPM fluorescence, 1 hour incubation at room temperature
Method: 20 uL of 90 uM CPM reagent in 90% ethanol was added after 1 hour incubation at room temperature.

| SMILES | IC50 [nM] |
| --- | --- |
| O=C(O)[C@H]1CC[C@@H](OC2CCN(c3ccc(-c4nc5cc(C(F)(F)F)ccc5[nH]4)cn3)CC2)CC1 [Example 68, cis-4-[(1-{5-[5-(trifluoromethyl)-1H-benzimidazol-2-yl]pyridin-2-yl}piperidin-4-yl)oxy]cyclohexanecarboxylic acid] | 2 |
| O=C(O)C1(COC2CCN(c3ccc(-c4nc5ccc(C(F)(F)F)cc5[nH]4)cn3)CC2)CC1 [Example 38] | 8 |
| O=C(O)C[C@H]1CC[C@@H](O[C@@H]2CC3C[C@H]2CN3c2ccc(-c3nc4cc(F)ccc4[nH]3)cn2)CC1 (single isomer, unassigned; enantiomer 2) [Example 29, [cis-4-({2-[5-(5-fluoro-1H-benzimidazol-2-yl)pyridin-2-yl]-2-azabicyclo[2.2.1]hept-5-yl}oxy)cyclohexyl]acetic acid enantiomer 2] | 5000 |
| Cc1cc(N2CCC(O[C@H]3CC[C@H](CC(=O)O)CC3)CC2)ncc1-c1nc2ccccc2[nH]1 [Example 12] | 349 |
| CCOC(=O)[C@H]1CC[C@@H](OC2CCN(c3ccc(-c4nc5cc(Cl)ccc5[nH]4)cn3)CC2)CC1 [Example 75] | 14 |
| O=C(O)C[C@H]1CC[C@H](O[C@H]2CCN(c3ccc(-c4nc5cc(F)ccc5[nH]4)cn3)C2)CC1 [Example 138] | 45 |
| Cc1ccc2[nH]c(-c3ccc(N4CCC(OC5CC(C(=O)O)(C(=O)O)C5)CC4)nc3)nc2n1 [Example 97] | 1000 |
| O=C(O)C1(C(=O)O)CC(OC2CCN(c3ccc(-c4nc5cc(F)ccc5[nH]4)cn3)CC2)C1 [Example 93] | 71 |
| CCOc1ccc2nc(-c3ccc(N4CCC(O[C@H]5CC[C@H](CC(=O)O)CC5)CC4)nc3)[nH]c2n1 [Example 4, [trans-4-({1-[5-(5-ethoxy-3H-imidazo[4,5-b]pyridin-2-yl)pyridin-2-yl]piperidin-4-yl}oxy)cyclohexyl]acetic acid] | 27 |
| O=C(NS(=O)(=O)c1ccccn1)[C@H]1CC[C@H](OC2CCN(c3ccc(-c4nc5cc(F)ccc5[nH]4)cn3)CC2)CC1 [Example 84] | 25 |
| CCOC(=O)[C@H]1CC[C@H](OC2CCN(c3ccc(-c4nc5cc(F)ccc5[nH]4)cn3)CC2)CC1 [Example 73] | 71 |
| O=C(NS(=O)(=O)c1ccc(C(F)(F)F)cc1)[C@H]1CC[C@H](OC2CCN(c3ccc(-c4nc5cc(F)ccc5[nH]4)cn3)CC2)CC1 [Example 85] | 9 |
| O=C(O)[C@H]1CC[C@H](OC2CCN(c3ccc(-c4nc5cc(F)ccc5[nH]4)cn3)CC2)CC1 [Example 74] | 15 |
| C[C@]1(C(=O)O)CC[C@@H](OC2CCN(c3ccc(-c4nc5cc(Cl)c(Cl)cc5[nH]4)cn3)CC2)CC1 [Example 109] | 2 |
| O=C(NS(=O)(=O)c1ccc(Cl)cc1)[C@H]1CC[C@H](OC2CCN(c3ccc(-c4nc5cc(F)ccc5[nH]4)cn3)CC2)CC1 [Example 89] | 4 |
| CCOc1ccc2nc(-c3ccc(N4CCC(O[C@H]5CC[C@@H](CC(=O)O)CC5)CC4)nc3)[nH]c2n1 [Example 9] | 20 |
| O=C(O)CC1CC(OC2CCN(c3ccc(-c4nc5cc(F)ccc5[nH]4)cn3)CC2)C1 (stereo not drawn) [Example 54] | 51 |
| O=C(O)C[C@H]1CC[C@@H](OC2CCN(c3ccc(-c4nc5nc(C(F)(F)F)ccc5[nH]4)cn3)CC2)CC1 [Example 27] | 13 |
| O=C(O)C1(COC2CCN(c3ccc(-c4nc5ccccc5[nH]4)cn3)CC2)CCC1 [Example 42] | 50 |
| O=C(O)C1(COC2CCN(c3ccc(-c4nc5ccc(F)cc5[nH]4)cn3)CC2)CCC1 [Example 39] | 15 |
| Cc1nc(N2CCC(O[C@H]3CC[C@H](CC(=O)O)CC3)CC2)ccc1-c1nc2ccccc2[nH]1 [Example 10] | 7900 |
| N#Cc1ccc2[nH]c(-c3ccc(N4CCC(O[C@H]5CC[C@H](CC(=O)O)CC5)CC4)nc3)nc2c1 [Example 18] | 26 |
| O=C(O)c1ncc(OC2CCN(c3ccc(-c4nc5cc(Cl)ccc5[nH]4)cn3)CC2)cn1 [Example 127, 5-(1-(5-(5-chloro-1H-benzo[d]imidazol-2-yl)pyridin-2-yl)piperidin-4-yloxy)pyrimidine-2-carboxylic acid] | 100 |
| O=C(O)C1(C(=O)O)CC(OC2CCN(c3ccc(-c4nc5cc(F)c(F)cc5[nH]4)cn3)CC2)C1 [Example 94] | 122 |
| O=C(O)C[C@H]1CC[C@H](OC2CCN(c3ccc(-c4nc5cc(Cl)ccc5[nH]4)cn3)CC2)CC1 [Example 19] | 3 |
| CC(C)S(=O)(=O)NC(=O)[C@H]1CC[C@H](OC2CCN(c3ccc(-c4nc5cc(F)ccc5[nH]4)cn3)CC2)CC1 [Example 81] | 17 |
| O=C(O)C[C@H]1CC[C@H](OC2CCN(c3ccc(-c4nc5cc(F)c(F)c(Br)c5[nH]4)cn3)CC2)CC1 [Example 15] | 2 |

| SMILES | IC50 [nM] |
| --- | --- |
| C[C@]1(C(=O)O)CC[C@@H](OC2CCN(c3ccc(-c4nc5ccccc5[nH]4)cn3)CC2)CC1 [Example 105, cis-4-({1-[5-(1H-benzimidazol-2-yl)pyridin-2-yl}piperidin-4-yl]oxy)-1-methylcyclohexanecarboxylic acid] | 44 |
| O=C(O)C[C@H]1CC[C@@H](OC2CCN(c3ccc(-c4nc5cc(Cl)ccc5[nH]4)cn3)CC2)CC1 [Example 26] | 3 |
| O=C(O)C[C@H]1CC[C@@H](OC2CCN(c3ccc(-c4nc5ccc(C(F)(F)F)cc5[nH]4)cn3)CC2)CC1 [Example 5] | 5 |
| C[C@]1(C(=O)O)CC[C@@H](OC2CCN(c3ccc(-c4nc5cc(F)ccc5[nH]4)cn3)CC2)CC1 [Example 111] | 21 |
| C[C@]1(C(=O)O)CC[C@@H](OC2CCN(c3ccc(-c4nc5ccc(C(F)(F)F)cc5[nH]4)cn3)CC2)CC1 [Example 98, cis-1-methyl-4-[(1-{5-[6-(trifluoromethyl)-1H-benzimidazol-2-yl]pyridin-2-yl}piperidin-4-yl)oxy]cyclohexanecarboxylic acid] | 4 |
| COc1ccc2nc(-c3ccc(N4CCC(O[C@H]5CC[C@H](N6CC(=O)NS6(=O)=O)CC5)CC4)nc3)[nH]c2n1 [Example 120] | 29 |
| O=C(O)C[C@H]1CC[C@H](OC2CCN(c3ccc(-c4nc5cc(Cl)cnc5[nH]4)cn3)CC2)CC1 [Example 20] | 61 |
| O=C(O)Cc1ccc(OC2CCN(c3ccc(-c4nc5cc(Cl)ccc5[nH]4)cn3)CC2)cc1 [Example 129] | 1 |
| O=C(O)C[C@H]1CC[C@@H](OC2CCN(c3ccc(-c4nc5cc(F)ccc5[nH]4)cn3)C2)CC1 (single isomer, unassigned) [Example 140] | 89 |
| O=C(O)C1(COC2CCN(c3ccc(-c4nc5ccc(C(F)(F)F)cc5[nH]4)cn3)CC2)CCOCC1 [Example 45] | 7 |
| CC(C)(COC1CCN(c2ccc(-c3nc4cc(Cl)ccc4[nH]3)cn2)CC1)C(=O)O [Example 47] | 5 |
| O=C(O)C1(COC2CCN(c3ccc(-c4nc5ccc(Cl)cc5[nH]4)cn3)CC2)CCC1 [Example 43] | 6 |
| C[C@]1(C(=O)O)C[C@H](OC2CCN(c3ccc(-c4nc5cc(C(F)(F)F)ccc5[nH]4)cn3)CC2)C1 [Example 103] | 4 |
| O=C(NS(=O)(=O)C(F)(F)F)[C@H]1CC[C@H](OC2CCN(c3ccc(-c4nc5cc(F)ccc5[nH]4)cn3)CC2)CC1 [Example 91] | 7 |
| COC(=O)C(C)(C)COC1CCN(c2ccc(-c3nc4ccccc4[nH]3)cn2)CC1 [Example 35] | 29 |
| O=C(O)C[C@H]1CC[C@@H](OC2CCN(c3ccc(-c4nc5ccc(F)cc5[nH]4)cn3)CC2)CC1 [Example 2, [cis-4-({1-[5-(6-fluoro-1H-benzimidazol-2-yl)pyridin-2-yl]piperidin-4-yl}oxy)cyclohexyl]acetic acid] | 8 |
| O=C(O)[C@H]1[C@@H]2C[C@H](OC3CCN(c4ccc(-c5nc6cc(C(F)(F)F)ccc6[nH]5)cn4)CC3)C[C@@H]21 [Example 133, (1R,3R,5S,6r)-3-[(1-{5-[5-(trifluoromethyl)-1H-benzimidazol-2-yl]pyridin-2-yl}piperidin-4-yl)oxy]bicyclo[3.1.0]hexane-6-carboxylic acid] | 2 |
| O=C(O)[C@H]1CC[C@@H](OC2CCN(c3ccc(-c4nc5cc(F)ccc5[nH]4)cn3)CC2)CC1 [Example 78] | 6 |
| O=C(O)C[C@H]1CC[C@H](OC2CCN(c3ccc(-c4nc5ccccc5[nH]4)cn3)CC2)CC1 [Example 7] | 19 |
| Cc1ccc2[nH]c(-c3ccc(N4CCC(O[C@H]5CC[C@@](C)(C(=O)O)CC5)CC4)nc3)nc2n1 [Example 110] | 425 |
| O=C(O)C1(COC2CCN(c3ccc(-c4nc5ccc(C(F)(F)F)cc5[nH]4)cn3)CC2)CCC1 [Example 37] | 2 |
| O=C(O)CC1CC(OC2CCN(c3ccc(-c4nc5cc(F)ccc5[nH]4)cn3)CC2)C1 (stereo not drawn) [Example 53] | 56 |
| O=C(O)c1cncc(OC2CCN(c3ccc(-c4nc5cc(Cl)ccc5[nH]4)cn3)CC2)c1 [Example 128] | 324 |
| O=C(O)C[C@H]1CC[C@H](OC2CCN(c3ccc(-c4nc5cccc(Br)c5[nH]4)cn3)CC2)CC1 [Example 14] | 7 |
| C[C@]1(C(=O)O)CC[C@H](OC2CCN(c3ccc(-c4nc5ccccc5[nH]4)cn3)CC2)CC1 [Example 101] | 27 |
| CCOC(=O)[C@H]1CC[C@@H](OC2CCN(c3ccc(-c4nc5cc(F)ccc5[nH]4)cn3)CC2)CC1 [Example 77] | 17 |
| O=C(NS(=O)(=O)C1CC1)[C@H]1CC[C@H](OC2CCN(c3ccc(-c4nc5cc(F)ccc5[nH]4)cn3)CC2)CC1 [Example 83] | 17 |
